Test results taken from patent US4734418A, “Quinazoline compounds and antihypertensives” (priority 1984, dated 1988).
Like-named read-outs stand apart in the source and are kept apart here.

Experiments:
[1] = system: Spontaneously Hypertensive Rats; test: Test 1: antihypertensive effects (systolic tail artery blood pressure) and heart rate in spontaneously hypertensive rats, oral; format: in vivo, rat (male, SHR); settings: for change in vivo at 1 mg/kg: Rattus norvegicus; for Change (%) in heart rate: maximum value
Method in brief: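 Male SHRs aged 20 weeks or older (350-430 g), with systolic pressure of 180 mmHg or higher, were used in groups of 3-4. Compounds in 0.5% methylcellulose were given orally, mostly at 1 mg/Kg. Systolic tail-artery blood pressure and heart rate were measured together as percent change.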

Mouse = test: Test 2: acute toxicity, mouse, oral; format: in vivo, male ddy-mice; settings: fourteenth day
Method: (§1) The acute toxicity of certain compounds of this invention were studied in the following manner.
(§2) Namely, male ddy-mice of 5 weeks of age and male Wister rats of 8 weeks of age were fasted for 18 hours and used in groups each of which was constituted of 4-5 of mice or rats. The compounds were each dissolved or suspended in a 0.5% methylcellulose solution and administered orally (P.O.). On the fourteenth day after the administration, their toxicity were judged.
(§3) Each numeral set indicates the number of dead animals/the number of teste
(§4) animals. Hyphens (--) indicate that no tests were effected.

Rat = test: Test 2: acute toxicity, rat, oral; format: in vivo, male Wister rats; settings: fourteenth day
Method: as §1, §2, §3, §4

[2] = solubility in DMSO (NMR not measured); format: physicochemical; settings: HCl salt
[3] = SHR, oral 1 mg/Kg, 1 hour, read-out: Antihypertensive effects, change (%) in blood pressure, 1 hour later
[4] = SHR, oral 1 mg/Kg, 3 hours, read-out: Antihypertensive effects, change (%) in blood pressure, 3 hours later
[5] = SHR, oral 1 mg/Kg, 6 hours, read-out: Antihypertensive effects, change (%) in blood pressure, 6 hours later
[6] = SHR, oral 1 mg/Kg, 24 hours, read-out: Antihypertensive effects, change (%) in blood pressure, 24 hours later
[7] = po, 1 h, read-out: Antihypertensive effects, change (%) in blood pressure, 1 hour later
[8] = po, 3 h, read-out: Antihypertensive effects, change (%) in blood pressure, 3 hours later
[9] = po, 6 h, read-out: Antihypertensive effects, change (%) in blood pressure, 6 hours later
[10] = po, 24 h, read-out: Antihypertensive effects, change (%) in blood pressure, 24 hours later

Compound	change in vivo at 1 mg/kg [1, 3] [%]	change in vivo at 1 mg/kg [1, 4] [%]	change in vivo at 1 mg/kg [1, 5] [%]	change in vivo at 1 mg/kg [1, 6] [%]	Change (%) in heart rate ([1]; SHR, oral 1 mg/Kg)	Acute Toxicity, number of dead animals/number of tested animals (Mouse; 1 g/Kg P.O.)	Acute Toxicity, number of dead animals/number of tested animals (Mouse; 3 g/Kg P.O.)	Acute Toxicity, number of dead animals/number of tested animals (Rat; 1 g/Kg P.O.)	Acute Toxicity, number of dead animals/number of tested animals (Rat; 3 g/Kg P.O.)	change in vivo at 1 mg/kg [1, 7] [%]	change in vivo at 1 mg/kg [1, 8] [%]	change in vivo at 1 mg/kg [1, 9] [%]	change in vivo at 1 mg/kg [1, 10] [%]	solubility in DMSO [2]
COc1cc2nc(N3CCN(c4ncc5c(n4)CN(C)C5=O)CC3)nc(N)c2cc1OC [Example 24]	-7.2	-24.8	-28.6	-8.7	+12.0%	0/5	0/5	0/5	0/5					
COc1cc2nc(N3CCN(c4ncc5c(=O)n(C)ccc5n4)CC3)nc(N)c2cc1OC [Example 4]	-4.4	-22.1	-26.5	-16.7	+5.7%	0/5	0/5	0/5	0/5					
CCn1ccc2nc(N3CCN(c4nc(N)c5cc(OC)c(OC)cc5n4)CC3)ncc2c1=O [Example 1, 4-Amino-6,7-dimethoxy-2-(4-(5,6-dihydro-6-ethyl-5-oxopyrido[4,3-d]pyrimidin-2-yl)piperazino)quinazoline]	-10.7	-17.3	-23	-8.2	+4.1%	0/5	0/5	0/5	0/5					
CCCC(=O)N1CCCN(c2nc(N)c3cc(OC)c(OC)cc3n2)CC1 [Example E-643, Bunazosin, reference compound]	-4.8	-12	-13.5	-6.7	+8.8%	0/5		2/4						
CCN1CCC(=O)c2cnc(N3CCN(c4nc(N)c5cc(OC)c(OC)cc5n4)CC3)nc21 [Example 21]	-17.2	-23.2	-23.6	-3.4	+7.4%	0/4								
COc1cc2nc(N3CCN(C(=O)C4CCCO4)CC3)nc(N)c2cc1OC (stereo not shown) [Terazosin, terazosin, reference compound]					+7.2%	0/5	1/5			-22.4	-25.9	-23.4	-5.4	
CCOC(=O)c1cnc(N2CCN(c3nc(N)c4cc(OC)c(OC)cc4n3)CC2)nc1C [Example 39]	-4.4	-12.7	-7.3	1.5	+2.2%	0/5								
COc1cc2nc(N3CCN(c4ncc5c(n4)N(C)C(=O)C5)CC3)nc(N)c2cc1OC [Example 29]	-5.2	-23	-35.2	-13.1	+10.1%	0/5	0/5	0/5	0/4					
COC(=O)c1cnc(N2CCN(c3nc(N)c4cc(OC)c(OC)cc4n3)CC2)nc1NC(C)C [Example 62]	-1.4	-24	-31.3	-21.2	+7.6%	0/5		0/5						
CCN1C(=O)CCCc2nc(N3CCN(c4nc(N)c5cc(OC)c(OC)cc5n4)CC3)ncc21 [Example 32]	-20.2	-30.5	-35.2	-16.4	+11.0%	0/5								
COc1cc2nc(N3CCN(c4ncc5ccccc5n4)CC3)nc(N)c2cc1OC [Example 70]	-7.8	-17.5	-23.3	-4.4	+13.7%	0/4								
COc1cc2nc(N3CCN(c4ncc5c(n4)CN(C(C)C)C5=O)CC3)nc(N)c2cc1OC [Example 25]	-4.3	-23.9	-35.4	-6.7	+12.9%	0/5								
COc1cc2nc(N3CCN(C(=O)c4ccco4)CC3)nc(N)c2cc1OC [Prazosin, prazosin, reference compound]					+8.0%	0/5	0/5	0/5	0/3	-23.6	-25.1	-24.6	-5	
COc1cc2nc(N3CCN(c4ncc5c(n4)N(C(C)C)C(=O)C5)CC3)nc(N)c2cc1OC [Example 30]	-7.4	-24.7	-32.1	-8.8	+11.7%	0/5								
CCN1Cc2nc(N3CCN(c4nc(N)c5cc(OC)c(OC)cc5n4)CC3)ncc2C1=O [Example 23]	-11.7	-21.9	-27	-2.6	+23.1%	0/5	0/5							
CCNc1nc(N2CCN(c3nc(N)c4cc(OC)c(OC)cc4n3)CC2)ncc1C(=O)OC.Cl [Example 2, 4-Amino-6,7-dimethoxy-2-(4-(4-ethylamino-5-methoxycarbonylpyrimidine-2-yl)piperazino)quinazoline hydrochloride]	-9	-23.9	-38.8	-16.4	+18.4%	0/5	0/5	0/5	0/5					
COc1cc2nc(N3CCN(c4ncc5c(n4)CNC5=O)CC3)nc(N)c2cc1OC [Example 22]	-1.5	-10.1	-17.1	-4	+17.7%									insolubility
CCN1CCc2nc(N3CCN(c4nc(N)c5cc(OC)c(OC)cc5n4)CC3)ncc2C1=O [Example 17]	0	-20.2	-27.9	-12	+10.8%	0/5								
